One test has as its system PMP22 mRNA. The test is described as follows: PMP22 mRNA level by quantitative RT-PCR after drug stimulation of rat Schwann cell primary culture. Format: cell-based. Also noted: key: +: significantly decreases PMP22 levels compared to control. The following applies: rat primary Schwann cells, drug incubation 24 hrs. As to the method:
After cells being platted in 12 well-dishes, the medium is replaced by a defined medium consisting in a mix of DMEM-F12 (Invitrogen #21331020) complemented by 1% of N2 supplement (Invitrogen #17502), 1% L-Glutamine (Invitrogen #25030024) 2.5% FBS (Sciencell #0025), 0.02 μg/ml of corticosterone (Sigma #C2505), 4 μM Forskolin and 50 μg/ml of gentamycin. Growth factors are not added to this medium, to promote SC differentiation
24 hours later, the medium is replaced by a defined medium (DMEM-F12) complemented with 1% Insulin-Transferrin-Selenium-X (ITS, Invitrogen #51300), 16 μg/ml of Putrescine (Sigma #P5780), 0.02 μg/ml of corticosterone and 50 μg/ml of gentamicin. At this step, neither progesterone nor forskolin are present in the medium.
One day later, Schwann cells are stimulated by combinations of drugs or drugs alone during 24 hrs (3 wells/condition). The preparation of each compound is performed just prior to its addition to the cell culture medium.
Drugs are added to a defined medium composed of DMEM-F12, with 1% Insulin-Transferrin-Selenium-X (ITS, Invitrogen #51300), 16 μg/ml of Putrescine, 0.02 μg/ml of corticosterone, 10 nM Progesterone and 50 μg/ml of gentamicin. The absence of Forskolin during drug stimulation avoids adenylate cyclase saturation.
Quantitative RT-PCR is used to compare the levels of PMP22 mRNA after drug stimulation, relative with housekeeping Ribosomal L13A mRNA in rat Schwann cell primary culture.
After rinsing with cold sterilized PBS, total RNAs from each cell sample are extracted and purified from SC using the Qiagen RNeasy micro kit (Qiagen #74004). Nucleic acids are quantified by Nanodrop spectrophotometer using 1 μl of RNA sample. The RNA integrity is determined through a BioAnalyzer (Agilent) apparatus.
RNAs are reverse-transcribed into cDNA according to standard protocol. cDNA templates for PCR amplification are synthesized from 200 ng of total RNA using SuperScript II reverse-transcriptase (Invitrogen #18064-014) for 60 min at 42° C. in the presence of oligo(dT), in a final volume of 20 μl.
cDNAs are subjected to PCR amplification using the ? LightCycler® 480 ? system (Roche Molecular Systems Inc.) Each cDNA are diluted five times before being used for PCR amplification. 2.5 μl of this cDNAs enters the PCR reaction solution (final volume of 10 μl). Preliminary experiments ensured that quantitation was done in the exponential phase of the amplification process for both sequences and that expression of the reference gene was uniform in the different culture conditions.
PCR reaction is performed by amplification of 500 nM of forward primer of rat PMP22 (NM_017037), 5-GGAAACGCGAATGAGGC-3 (SEQ ID NO: 1), and 500 nM of reverse primer 5-GTTCTGTTTGGTTTGGCTT-3 (SEQ ID NO: 2) (amplification of 148-bp). A 152-bp fragment of the RPL13A ribosomal (NM_173340) RNA is amplified in parallel in separate reactions for normalization of the results by using 500 nM of forward primer 5-CTGCCCTCAAGGTTGTG-3 (SEQ ID NO: 3), and 500 nM of reverse primer 5-[…]-3 (SEQ ID NO: 4).
We used FRET chemistry to perform RT-Q-PCR analysis. FRET probes are composed of 0.3 μM of Pmp22-FL-5-[…] (SEQ ID NO: 5) or Rpl13A-FL-5-TCGGGTGGAAGTACCAGCC (SEQ ID NO: 6), labelled at their 3′ end with a donor fluorophore dye (Fluorescein). 0.15 μM Red640 probes are defined as follows: Pmp22-red-5′-[…]- (SEQ ID NO: 7) or Rpl13A-red-5′-[…] (SEQ ID NO: 8), labelled at their 5′ end with an acceptor fluorophore dye (Rhodamine Red 640).
Each PCR reaction contained 2.5 μl cDNA template in a final volume of 10 μl of master mix kit (Roche #04-887301001).
The following PCR conditions are used: 10 sec at 95° C., 10 sec at 63° C. and 12 sec at 72° C. and 30 sec at 40° C. (Forty amplification cycles). The relative levels of PMP22 gene expression is measured by determining the ratio between the products generated from the target gene PMP22 and the endogenous internal standard RPL13A. […]

For another test, the system named is PMP22 protein. The test is described as follows: PMP22 protein expression analysis by flow cytometry (FACS) in Schwann cells. Format: cell-based, rat. Also noted: key to Protein (PMP22 expression decrease): +: significantly decreases PMP22 levels compared to control. The following applies: rat primary Schwann cells, FACS, 24 hrs. The protocol:
One day later, Schwann cells are stimulated by combinations of drugs or drugs alone during 24 hrs (3 wells/condition). The preparation of each compound is performed just prior to its addition to the cell culture medium. Drugs are added to a defined medium composed of DMEM-F12, with 1% Insulin-Transferrin-Selenium-X (ITS, Invitrogen #51300), 16 μg/ml of Putrescine, 0.02 μg/ml of corticosterone, 10 nM Progesterone and 50 μg/ml of gentamicin. The absence of Forskolin during drug stimulation avoids adenylate cyclase saturation. 8 hrs, 24 hrs and 48 hrs after drugs incubation, supernatants are recovered, centrifuged and frozen. SC are detached with trypsin-EDTA. As soon as the majority of cells are in suspension, the trypsin is neutralised using DMEM with 10% FCS. Supernatants with cells are recovered and centrifuged. The pellets of cells are transferred in micro tubes, washed in PBS once and fixed with a specific solution (AbCys #Reagent A BUF09B). 10 minutes later, cells are rinsed once with PBS and kept at 4° C. Five days after cell fixation, all cell preparations with different incubation times are labelled using the following protocol. […] Cells are then centrifuged at 7000 rpm for 5 minutes and cell pellets are rinsed once in PBS. A secondary antibody is added, coupled to Alexa Fluor 488 (goat anti-rabbit IgG, Molecular Probes #A11008, 1/100), for one hour at room temperature. Cells are then centrifuged at 7000 rpm for 5 minutes and cell pellets are rinsed once in PBS. The labelling is increased adding a tertiary antibody coupled to Alexa Fluor 488 (chicken anti-goat IgG, Molecular Probes #A21467, 1/100) for one hour incubation, at room temperature. Cells are then rinsed once in PBS. Control without any antibody (unlabelled cells) is performed to determine the level of autofluorescence and adapted the sensitivity of the photomultiplicators. Control with both secondary and tertiary antibodies but without primary antibody, is performed to assess non specific binding of antibodies. Data acquisition and analysis are performed with a FACS Array cytometer and FACS Array software (Becton Dickinson) on 5000 cells. Forward Scatter (FSC) correlated with cell volume (size) and Side Scatter (SSC) depending on inner complexity of cells (granularity) are analysed. For expression of PMP22, analysis is performed within the total cells and percent of positive cells is calculated. Positive cells are cells with fluorescence intensity higher than the control with secondary antibody. We tested the ability of some drugs to inhibit PMP22 protein expression (FACS analysis). […] The results of the action of some individual drugs on the protein level of PMP22 are also shown on table 1 above.
(In flow cytometry, cells or beads pass a laser one at a time.)

The test system of the next test is PMP22. As to conditions: transgenic rodent models with over expression of PMP22; cited from earlier work.

Regarding `O=C1CC[C@@]2(O)[C@H]3Cc4ccc(O)c5c4[C@@]2(CCN3CC2CC2)[C@H]1O5` [Naltrexone], the “mRNA (PMP22 expression decrease)” value with PMP22 mRNA was “+”.

Turning to `CC(C)NCC(O)c1ccc(O)c(O)c1` (stereo not drawn) [Isoproterenol], the “mRNA (PMP22 expression decrease)” value in the test on PMP22 mRNA was “+”. `COc1ccc2c(c1)c(CC(=O)O)c(C)n2C(=O)c1ccc(Cl)cc1` [Indomethacin]: in the test with PMP22 protein, the “Protein (PMP22 expression decrease)” value is “+”. Besides, in the test on PMP22 mRNA, the “mRNA (PMP22 expression decrease)” value is given as “+”. Regarding `O=C1O[C@H]([C@@H](O)CO)C(O)=C1O` [ascorbic acid], the “PMP22 expression in the transgenic animals” value in the test with PMP22 is “decreased this expression”. As for `CC(C(=O)O)c1ccc(-c2ccccc2)c(F)c1` (stereo not drawn) [Flurbiprofen], the “Protein (PMP22 expression decrease)” value in the test with PMP22 protein is “+”. Moreover, the “mRNA (PMP22 expression decrease)” value with PMP22 mRNA is on record as “+”. On to `CN(C)c1ccc([C@H]2C[C@]3(C)[C@@H](CC[C@]3(O)CCCO)[C@@H]3CCC4=CC(=O)CCC4=C32)cc1` [onapristone], for which the “PMP22 expression in the transgenic animals” value with PMP22 was “decreased this expression”. As for `O=C(O)Cc1ccccc1Nc1c(Cl)cccc1Cl` [Diclofenac], the “Protein (PMP22 expression decrease)” value in the test with PMP22 protein is given as “+”. The “mRNA (PMP22 expression decrease)” value in the test on PMP22 mRNA is given as “+”. Take `CC#C[C@]1(O)CC[C@H]2[C@@H]3CCC4=CC(=O)CCC4=C3[C@@H](c3ccc(N(C)C)cc3)C[C@@]21C` [Mifepristone]: in the test with PMP22 mRNA, the “mRNA (PMP22 expression decrease)” value is on record as “+”.

For `OC[C@@H](O)[C@@H](O)[C@H](O)[C@@H](O)CO` [Sorbitol, D-Sorbitol], the “mRNA (PMP22 expression decrease)” value in the test with PMP22 mRNA was “+”. As to `Cc1cnc(NC(=O)C2=C(O)c3ccccc3S(=O)(=O)N2C)s1` [Meloxicam], the “Protein (PMP22 expression decrease)” value in the test with PMP22 protein was “+”. Moreover, in the test with PMP22 mRNA, the “mRNA (PMP22 expression decrease)” value is “+”. Take `CCC(C)(C)C(=O)O[C@H]1C[C@@H](C)C=C2C=C[C@H](C)[C@H](CC[C@@H]3C[C@@H](O)CC(=O)O3)[C@H]21` [Simvastatin]: the “mRNA (PMP22 expression decrease)” value in the test with PMP22 mRNA is given as “+”. In the case of `CC(C(=O)O)c1cccc(C(=O)c2ccccc2)c1` (stereo not drawn) [Ketoprofen], the “Protein (PMP22 expression decrease)” value in the test with PMP22 protein was “+”. For the same compound, the “mRNA (PMP22 expression decrease)” value in the test with PMP22 mRNA was “+”. As to `C[C@]12CC[C@H]3[C@@H](CC[C@@]45O[C@@H]4C(O)=C(C#N)C[C@]35C)[C@@H]1CC[C@@H]2O` [Trilostane], the “mRNA (PMP22 expression decrease)” value with PMP22 mRNA was “+”. As to `O=C(CCCN1CCC(O)(c2ccc(Cl)cc2)CC1)c1ccc(F)cc1` [Haloperidol], the “mRNA (PMP22 expression decrease)” value in the test on PMP22 mRNA was “+”. In the case of `CCN(CC)C(=S)SSC(=S)N(CC)CC` [Disulfiram], the “mRNA (PMP22 expression decrease)” value with PMP22 mRNA was “+”. For `CC(C)OC(=O)C(C)(C)Oc1ccc(C(=O)c2ccc(Cl)cc2)cc1` [Fenofibrate], the “mRNA (PMP22 expression decrease)” value in the test on PMP22 mRNA was “+”. For the compound `NCC(CC(=O)O)c1ccc(Cl)cc1` (stereo not drawn) [Baclofen], the “mRNA (PMP22 expression decrease)” value in the test on PMP22 mRNA is listed as “+”. In the case of `C[C@]12CC[C@@H]3c4ccc(O)cc4CC[C@H]3[C@@H]1CC[C@@H]2O` [Estradiol-b, Estradiol], the “mRNA (PMP22 expression decrease)” value in the test on PMP22 mRNA is recorded as “+”. For the compound `CC(C)(O)c1ccccc1CC[C@@H](SCC1(CC(=O)O)CC1)c1cccc(/C=C/c2ccc3ccc(Cl)cc3n2)c1` [Montelukast], in the test on PMP22 mRNA, the “mRNA (PMP22 expression decrease)” value is listed as “+”.

The values above are taken from patent US8992891B2, “Therapeutic approaches for treating CMT and related disorders” (Pharnext, priority 2007, dated 2015).
